Data on 2 compounds can be found in patent US9040568B2, “Pharmaceutical compositions for the treatment of pain” (AbbVie Inc., priority 2009, dated 2015).

What all share (type): in vivo, rat
Test [1] concerns nerve injury induced mechanical allodynia. In words: Chung model of neuropathic pain (L5-L6 spinal nerve ligation, tactile allodynia, von Frey). Here is the method: To assess whether α4β2 PAM can increase antinociceptive responses of agonists in vivo, the following study was conducted. The materials and methods used to accomplish the study follow.
Male Sprague-Dawley rats (Charles River, Wilmington, Mass.) weighing 120-150 grams at time of surgery were utilized. These animals were group housed in AAALAC approved facilities at Abbott Laboratories in a temperature-regulated environment with lights on between 0700 and 2000 hours. Food and water was available ad libitum except during testing. All animal handling and experimental protocols were approved by an institutional animal care and use committee (IACUC). All experiments were performed during the light cycle.
5[(2R)-Azetidin-2-ylmethoxy]-2-chloropyridine (Compound A, 1-100 nmol/kg) and 3-(3-pyridin-3-yl)-1,2,4-oxadiazol-5-yl)benzonitrile (α4β2 PAM Compound 1, 1-35 μmol/kg, i.p.) was used. Compound A and D was prepared in saline and injected in solution in a volume of 2 ml/kg body weight 30 minutes before behavioral evaluation. Compound 1,3-(3-(pyridin-3-yl)-1,2,4-oxadiazol-5-yl)benzonitrile, was prepared in 30% hydroxybetacyclodextrin and injected in solution in a volume of 4 ml/kg body weight immediately before Compound A. For studies with Compound D, the doses tested ranged from 0.3-30 μmol/kg i.p.
To produce neuropathic pain, tight ligation of the L5-L6 spinal nerves was performed. As previously described in detail by Kim and Chung (Kim S H and Chung J M (1992), Pain 50: 355), following sterilization procedures, a 1.5 cm incision was made dorsal to the lumbosacral plexus. The paraspinal muscles (left side) were separated from the spinous processes, the L5 and L6 spinal nerves isolated, and tightly ligated with 3-0 silk thread. Following hemostasis, the wound was sutured and coated with antibiotic ointment. The rats were allowed to recover and then placed in a cage with soft bedding for 7-14 days before behavioral testing for mechanical allodynia.
Tactile allodynia was measured using calibrated (force; g) von Frey filaments (Stoelting, Wood Dale, Ill.). Briefly, rats were placed into individual plexiglass containers and allowed to acclimate for 15-20 minutes before testing. Withdrawal threshold was determined by increasing and decreasing stimulus intensity and estimated using a Dixon non-parametric test (Chaplan et al., 1994; Chaplan S R, Bach F W, Pogrel J W, Chung J M and Yaksh T L (1994) J Neurosci Methods 53:55-63). Only rats with threshold scores<4.5 g were considered allodynic and utilized in further testing. A percent of maximal possible effect (% M.P.E.) of the tested compounds was calculated according to the formula: ([post-drug threshold]-[baseline threshold])/([maximum threshold]-[baseline threshold])×100%, where maximum threshold was equal to 15 g.
Analysis of the in vivo data was carried out using analysis of variance. Where appropriate, Bonferroni's Multiple Comparison Test was used for post-hoc analysis. The level of significance was set at p less than 0.05. Data are presented as mean±S.E.M.

Test [2] relates to carrageenan-induced acute inflammatory thermal hyperalgesia. In words: Carrageenan model of acute inflammatory thermal hyperalgesia. The settings on record: for increase of the PWLcontra: vs vehicle. The protocol:
Acute inflammatory thermal hyperalgesia were induced by injecting 100 μl of a 1% solution of λ-carrageenan (Sigma Chemical Co., St. Louis, Mo.) in physiological saline into the plantar surface of the right hind paw. Thermal hyperalgesia measured as paw withdrawal latency (PWL) was determined, using a commercially available thermal paw stimulator (UARDG, University of California, San Diego, Calif.) as described by Hargreaves et al. (Hargreaves et al., 1988). Rats were placed into individual plastic cubicles mounted on a glass surface maintained at 30° C., where a thermal stimulus, in the form of radiant heat emitted from a focused projection bulb, was then applied to the plantar surface of each hind paw. The stimulus current was maintained at 4.50±0.05 amp, and the maximum time of exposure was set at 20.48 s to limit possible tissue damage. The elapsed time until a brisk withdrawal of the hind paw from the thermal stimulus was recorded automatically using photodiode motion sensors. The right (carrageenan injected paw) and left hind paw of each rat was tested in 3 sequential trials at approximately 5 min intervals. Carrageenan-induced thermal hyperalgesia of paw withdrawal latency (PWLcarra) was calculated as the mean of the two shortest latencies. PWL was assessed 30 min (2 h after carrageenan injection) following i.p. compound administration. PWLcarra of the vehicle control group was taken as 0%, whereas the PWL of the contralateral side (PWLcontra) of the vehicle control group was taken as 100%, the analgesic efficacy was expressed as the percentage return of PWLcarra to PWLcontra.

Test [3] concerns MIA-induced osteoarthritis pain. In words: Monoiodoacetate-induced osteoarthritis (MIA-OA) pain model, compressive grip force. Here is the method:
Under light isoflurane (2-3%) anesthesia, MIA (3 mg) was unilateral intra-articularly injected into right hind knee joint in a volume of 50 μl as previously described (Chandran et al., 2009). Compressive grip force (CGF) was determined 20 days following MIA injection by recording the maximum compressive force exerted on the hind limb strain gauge setup, using a commercially available grip force measurement system (Columbus Instruments, Columbus, Ohio). In this assay, each rat was gently restrained and the hind paw was allowed to grasp the wire mesh frame (10×12 cm) attached to the strain gauge. The animal was then moved in a rostral-to-caudal direction until the grip was broken, and CGF reading expressed as g was recorded. Each rat was sequentially tested twice at approximately 2-3 min intervals to obtain an average raw CGF. To avoid confounding factor of body weight, CGF was converted into CGFbody following the formula: g (CGF)÷kg (body weight). CGF was assessed 30 min following i.p. compound administration. The vehicle control group was taken as 0%, whereas the age-matched naïve group was described as 100% (normal), the analgesic efficacy was expressed as the percentage return of CGFbody to normalcy vs. the naïve group: [(treatment-vehicle)/(naïve-vehicle)]×100%. Experiments were performed in animals 20 days following MIA knee joint injection, since this is the time point that maximal reduction of grip force observed in the time-course experiment (Chandran et al., 2009).

[4] abbreviates: Compound A 10 nmol/kg combined with Compound 1 (3.5 μmol/kg).
The mark [5] stands for this setting: co-administration of Compound 1.

A word on the ED50: it is the dose at which the effect has come halfway, by size or by number of responders. Regarding `Clc1ccc(OC[C@H]2CCN2)cn1` [Compound A, 5-[(2R)-azetidin-2-ylmethoxy]-2-chloropyridine], the figures for the “efficacy in neuropathic pain” value in test [1] (Compound A 1 nmol/kg alone) and in test [1] (Compound A 1 nmol/kg combined with varying doses of Compound 1) were “ineffective” and “dose-dependent increase in efficacy”, respectively. Also, the “mechanical paw withdrawal threshold (PWT)” value in test [1] (Compound A co-administered with Compound 1 (PAM)) was determined as 12.1 ± 0.5 g. For the same compound, the “percent reversal of thermal hyperalgesia” value in test [2] (setting [4]) came out at 31±13%; in test [2] (Compound A 30 nmol/kg combined with Compound 1 (3.5 μmol/kg)) it was 46±10%; in test [2] (Compound A 100 nmol/kg combined with Compound 1 (3.5 μmol/kg)), 84±12%; in test [2] (Compound A alone, 100 nmol/kg), 28±5%; in test [2] (Compound A alone, 300 nmol/kg), 74±9%. Besides, the PWLcarra in test [2] (Compound A 10 nmol/kg i.p. in the presence of Compound 1 (3.5 μmol/kg)) came out at 5.29 ± 0.91 s; in test [2] (Compound A 30 nmol/kg i.p. in the presence of Compound 1 (3.5 μmol/kg)) it was 6.35 ± 0.71 s; in test [2] (Compound A 100 nmol/kg i.p. in the presence of Compound 1 (3.5 μmol/kg)), 8.94 ± 0.79 s; in test [2] (Compound A alone, 100 nmol/kg i.p.) it was 5.46 ± 0.36 s; in test [2] (Compound A alone, 300 nmol/kg i.p.) it was 8.80 ± 0.65 s. The “increase of the PWLcontra” value in test [2] (Compound A and Compound 1 co-administered animals) is on record as “not statistically significant”; in test [2] (Compound A treated animals), “not statistically significant”. In addition, the 50% effective dose (ED50) in test [2] (Rattus norvegicus, Compound A alone, read-out: ED50 (reversal of thermal hyperalgesia)) was 0.16 µmol/kg; in test [3] (Rattus norvegicus, Compound A alone, read-out: ED50 (return of grip force to normalcy)), 0.0046 µmol/kg. Besides, the “leftward shift in the DRC of Compound A” value in test [2] (setting [5]) and in test [3] (setting [5]) was 5 fold in each case. Besides, the “percent return of grip force to normalcy” value came to 29±2% in test [3] (Compound A 0.3 nmol/kg combined with Compound 1 (3.5 μmol/kg)); 50±3% in test [3] (Compound A 1 nmol/kg combined with Compound 1 (3.5 μmol/kg)); 66±5% in test [3] (Compound A 3 nmol/kg combined with Compound 1 (3.5 μmol/kg)); 92±6% in test [3] (setting [4]); 20±4% in test [3] (Compound A alone, 1 nmol/kg); 35±6% in test [3] (Compound A alone, 3 nmol/kg). Further, the “percent return of grip force to normalcy” value in test [3] (Compound A alone, 10 nmol/kg) was found to be 65±5%; in test [3] (Compound A alone, 30 nmol/kg), 90±4%. Besides, the CGFbody stood at 657 ± 21 g in test [3] (Compound A 0.3 nmol/kg/kg in the presence of Compound 1 (3.5 μmol/kg)); 855 ± 28 g in test [3] (Compound A 1 nmol/kg/kg in the presence of Compound 1 (3.5 μmol/kg)); 971 ± 35 g in test [3] (Compound A 3 nmol/kg/kg in the presence of Compound 1 (3.5 μmol/kg)); 1243 ± 56 g in test [3] (Compound A 10 nmol/kg/kg in the presence of Compound 1 (3.5 μmol/kg)); 575 ± 37 g in test [3] (Compound A alone, 1 nmol/kg); 717 ± 64 g in test [3] (Compound A alone, 3 nmol/kg). Moreover, the CGFbody was 992 ± 45 g in test [3] (Compound A alone, 10 nmol/kg) and 1234 ± 37 g in test [3] (Compound A alone, 30 nmol/kg).

Take `N#Cc1cccc(-c2nc(-c3cccnc3)no2)c1` [Example 1, 3-(3-(pyridin-3-yl)-1,2,4-oxadiazol-5-yl)benzonitrile]: the “effect on the dose response curve of Compound A” value in test [1] (Compound 1 3.5 μmol/kg with various doses of Compound A) is “left-shifting the dose response curve of Compound A”. In addition, the “efficacy in neuropathic pain” value in test [1] (administered alone) is listed as “ineffective”. For the same compound, in test [2] (Compound 1 alone, up to 35 μmmol/kg, i.p.), the “alteration of PWLcarra” value is reported as “produced no alteration of PWLcarra”. Also, in test [3] (Compound 1 alone, 3.5 μmol/kg i.p.), the “return of grip force normalcy” value is “produced no return of grip force normalcy”.
